Patent US11571412B2, “Thromboxane receptor antagonists in AERD/asthma” (Cumberland Pharmaceuticals Inc., priority 2015, dated 2023)
“Also recorded” adds a separate entry of the source. Read-outs that look alike come from different tables or passages of the source.

Key:
[1] = system: TP receptor-induced bronchospasm; conditions: rats; cited from earlier work
[2] = system: patients with a history of aspirin exacerbated respiratory disease (AERD); experiment: Multicenter, double-blind, randomized, placebo-controlled trial of oral ifetroban with aspirin challenge/desensitization (AERD Phase 2a); format: in vivo, human; conditions: for Incidence of an AIR by Aspirin Dose: AIR population n = 10; for NIFR ≥25% decrease / NIFR ≥25% increase / TNSS ≥25% decrease / TNSS ≥25% increase: ifetroban 200 mg/day oral; for Rescue Medications Mean (SD): to resolve an AIR
Description: Example IV is a multicenter, double-blind, randomized, placebo-controlled trial to determine the safety of oral ifetroban in patients with a history of aspirin exacerbated respiratory disease (AERD).
The eligible subjects were randomized (3:1 active to placebo) in this 7-day study which consisted of a screening, treatment and follow-up period. Any subject receiving at least a partial dose of IMP were not replaced and included in the study analysis. Of 19 subjects enrolled and randomized to study treatment, 14 (74%) were randomized to the ifetroban group and 5 (26%) to the placebo group. Of those 14 randomized to ifetroban, 12 (86%) subjects were treated and 100% of those treated completed treatment. Of 5 subjects randomized to placebo, 4 (80%) started treatment and 100% completed treatment. All treated subjects were analyzed for safety and efficacy variables.
All individuals with AERD will experience a clinical reaction to aspirin, most often at a dose of 81 mg or below. By utilizing a modified Scripps Institute protocol (Hope, Woessner, Simon, & Stevenson, 2009), limiting the study to individuals with stable asthma and no history of life-threatening reaction to COX inhibitors and administering the cysteinyl leukotriene receptor 1 (Cys-LT1) antagonist montelukast to all individuals undergoing the challenge/desensitization, the procedure could safely be done in an ambulatory/outpatient clinic setting. […] Thus, montelukast substantially increases the safety of aspirin challenge/desensitization and it is the standard of care to use montelukast as a pre-treatment for subjects with AERD undergoing a planned aspirin challenge/desensitization.
The primary objective of this study was to determine the safety of oral ifetroban compared to placebo as measured by a ≥20% decrease in Forced Expiratory Volume in 1 second (FEV1) compared to baseline following a dose of Investigational Medicinal Product (IMP) (Study Day 1) or following a dose of IMP but prior to initiation of the aspirin challenge. Secondary objectives were: (i) to determine the safety of oral ifetroban compared to placebo as measured by peak Nasal Inspiratory Flow Rate (NIFR) compared to baseline following a dose of IMP (Study Day 1) or following a dose of IMP but prior to initiation of the aspirin challenge; (ii) to determine the safety of oral ifetroban compared to placebo as measured by the change in Total Nasal Symptom Score (TNSS) compared to baseline following a dose of IMP (Study Day 1) or following a dose of IMP but prior to initiation of the aspirin challenge; (iii) to determine the safety and tolerability of oral ifetroban compared to placebo as measured by treatment-emergent adverse events; (iv) to determine the efficacy of oral ifetroban compared to placebo in decreasing the respiratory reaction to oral aspirin as measured by the change in FEV1 compared to baseline during the aspirin challenge; (v) to determine the efficacy of oral ifetroban compared to placebo in decreasing the respiratory reaction to oral aspirin as measured by the change in NIFR compared to baseline during the aspirin challenge; (vi) to determine the efficacy of oral ifetroban compared to placebo in decreasing the respiratory reaction to oral aspirin as measured by the change in TNSS compared to baseline during the aspirin challenge; (vii) to determine the efficacy of oral ifetroban compared to placebo in decreasing the respiratory reaction to oral aspirin as measured by the amount of rescue medication during the aspirin challenge; (viii) to determine the efficacy of oral ifetroban compared to placebo in decreasing respiratory sensitivity to COX-1 inhibition as measured by the aspirin desensitization dose level; and (ix) to determine the efficacy of oral ifetroban compared to placebo as measured by the number of asthmatic reactions during the Treatment Period. […]

[3] = system: TP receptor-induced bronchospasm; conditions: guinea pigs; cited from earlier work
[4] = system: guinea pig trachea; conditions: in vitro; cited from earlier work
[5] = target: CYP3A4 (Homo sapiens, UniProt P08684); conditions: cited from earlier work
[6] = target: CYP2C9 (Homo sapiens, UniProt P11712); conditions: cited from earlier work
[7] = system: Df-treated ptges−/− mice; conditions: cited from earlier work; for Reaction to aspirin (peak change in RL in response to Lys-ASA challenge): two doses of antagonist prior to challenge with Lys-ASA
[8] = Phase A, n = 12, listed as ifetroban
[9] = Phase B (aspirin challenge), n = 12
[10] = aspirin desensitization, n = 12
[11] = column headed Phase C (overall, during the study), n = 12
[12] = subjects that experienced an AIR
[13] = subjects that experienced an AIR, listed as ifetroban

CYP2C9, sequence (P11712 whole entry): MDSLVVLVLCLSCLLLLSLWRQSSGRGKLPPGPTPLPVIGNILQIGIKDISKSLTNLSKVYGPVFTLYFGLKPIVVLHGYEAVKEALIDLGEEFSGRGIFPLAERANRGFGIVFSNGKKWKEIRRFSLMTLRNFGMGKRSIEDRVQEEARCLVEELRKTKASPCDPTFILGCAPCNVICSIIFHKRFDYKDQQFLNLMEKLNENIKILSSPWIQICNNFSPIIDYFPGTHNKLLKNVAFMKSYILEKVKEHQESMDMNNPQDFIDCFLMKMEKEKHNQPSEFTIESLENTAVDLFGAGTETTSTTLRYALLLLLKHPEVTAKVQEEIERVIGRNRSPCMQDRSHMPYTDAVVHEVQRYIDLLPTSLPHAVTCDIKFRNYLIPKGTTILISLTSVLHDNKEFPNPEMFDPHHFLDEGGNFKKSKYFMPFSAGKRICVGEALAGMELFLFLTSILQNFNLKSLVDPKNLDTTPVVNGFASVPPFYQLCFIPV
CYP3A4, sequence (P08684 whole entry): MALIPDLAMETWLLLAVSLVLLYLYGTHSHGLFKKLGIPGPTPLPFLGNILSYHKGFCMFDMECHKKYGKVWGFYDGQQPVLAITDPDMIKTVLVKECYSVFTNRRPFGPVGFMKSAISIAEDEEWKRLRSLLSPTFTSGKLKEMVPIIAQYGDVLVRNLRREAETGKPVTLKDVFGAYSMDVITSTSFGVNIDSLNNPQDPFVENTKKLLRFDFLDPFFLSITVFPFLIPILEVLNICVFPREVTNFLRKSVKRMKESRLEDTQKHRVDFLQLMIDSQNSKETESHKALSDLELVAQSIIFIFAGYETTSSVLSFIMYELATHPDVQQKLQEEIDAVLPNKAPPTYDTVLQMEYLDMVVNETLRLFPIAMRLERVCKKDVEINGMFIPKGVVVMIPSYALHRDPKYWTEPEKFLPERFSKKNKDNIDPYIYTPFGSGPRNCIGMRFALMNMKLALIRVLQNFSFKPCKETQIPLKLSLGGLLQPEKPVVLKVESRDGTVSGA

## CCCCCNC(=O)c1coc([C@H]2[C@@H](Cc3ccccc3CCC(=O)O)[C@@H]3CC[C@H]2O3)n1 [Ifetroban, [1S-(1α,2α,3α,4α)]-2-[[3-[4-[(Pentylamino)carbonyl]-2-oxazolyl]-7-oxabicyclo[2.2.1]hept-2-yl]methyl]-benzenepropanoic acid]
[1]
  TP receptor-induced bronchospasm: both preempt and reverse
[2]; 7.33 (placebo) versus 2.90 (ifetroban) to resolve an AIR
  Difference in mean rescue medications, placebo versus ifetroban: 2.5 fold
[2]; AIR subjects n = 10
  Severity of an AIR: All Symptoms (total number): 43
[2]; Aspirin Dose 30 mg
  Incidence of an AIR by Aspirin Dose: 0 No. of Subjects (%)
[2]; Aspirin Dose 60 mg
  Incidence of an AIR by Aspirin Dose: 5 (50) No. of Subjects (%)
[2]; Aspirin Dose 100 mg
  Incidence of an AIR by Aspirin Dose: 5 (50) No. of Subjects (%)
[2]; Aspirin Dose 150 mg
  Incidence of an AIR by Aspirin Dose: 0 No. of Subjects (%)
[2]; Aspirin Dose 325 mg
  Incidence of an AIR by Aspirin Dose: 0 No. of Subjects (%)
[2]; Phase A, n = 12
  NIFR ≥25% decrease: 2(17) No. of Subjects (%)
  NIFR ≥25% increase: 3(25) No. of Subjects (%)
  TNSS ≥25% decrease: 1(8) No. of Subjects (%)
  TNSS ≥25% increase: 0 No. of Subjects (%)
[2]; [8]
  TNSS ≥25% decrease: 1 (8%) No. of Subjects (%)
  TNSS ≥25% increase: No subject
[2]; [9]
  NIFR ≥25% decrease: 4(33) No. of Subjects (%)
  NIFR ≥25% increase: 7(58) No. of Subjects (%)
  TNSS ≥25% decrease: 2(17) No. of Subjects (%)
  TNSS ≥25% increase: 3(25) No. of Subjects (%)
[2]; Phase B (aspirin challenge), n = 12, listed as ifetroban
  TNSS ≥25% decrease: 2 (17%) No. of Subjects (%)
[2]; aspirin challenge
  Average number of symptoms per AIR compared to placebo: comparable between treatment groups
  Bronchial reaction (<20% decrease in FEV1, wheezing, chest tightness) as part of the AIR compared to placebo: at a similar rate
  Ocular manifestation compared to placebo: seems to trend toward the placebo arm more often than on the ifetroban arm
  Upper respiratory effect (rhinorrhea, nasal obstruction, sneezing) compared to placebo: equally as common between treatment groups
[2]; aspirin challenge (phase B)
  Number of rescue medications compared to placebo (trend): apparent trend toward fewer rescue medications in favor of the ifetroban group
  Total Number of Rescue Medications: 29
[2]; [10]
  Aspirin-induced Reaction (AIR): No: 2 (17) No. of Subjects (%)
  Aspirin-induced Reaction (AIR): Yes: 10 (83) No. of Subjects (%)
[2]; between treatment groups
  Proportion of subjects with worsening NIFR or TNSS compared to placebo: no clear trends were observed; also recorded: no appreciable difference was observed
[2]; [11]
  NIFR ≥25% decrease: 5(42) No. of Subjects (%)
  NIFR ≥25% increase: 9(75) No. of Subjects (%)
  TNSS ≥25% decrease: 2(17) No. of Subjects (%)
  TNSS ≥25% increase: 3(25) No. of Subjects (%)
[2]; column headed Phase C (overall, during the study), n = 12, listed as ifetroban
  NIFR ≥25% increase: 9 (75%) No. of Subjects (%)
[2]; during IMP treatment or the aspirin desensitization process, 200 mg/day
  ≥20% decrease in FEV1 (primary endpoint): did not cause a ≥20% decrease in FEV1
[2]; during both phase A and phase B
  Subjects with ≥25% decrease in peak NIFR during both phase A and phase B: One
[2]; during phase A and phase B
  Improvements to NIFR and TNSS compared to placebo: observed trend in favor of the ifetroban group toward greater improvements
[2]; during the study
  Subjects with ≥50% or 75% increase or decrease in TNSS: No one
[2]; ifetroban at 200 mg/day
  AEs reported compared to placebo: no increase in AEs
[2]; ifetroban at 200 mg/day, subjects with a history of AERD
  Safety and tolerability: well tolerated and safe
[2]; ifetroban at a dose of 200 mg/day
  Symptoms of aspirin desensitization in AERD patients: may be diminished
[2]; n = 10
  Severity of an AIR: <20% decrease in FEVI (number): 9
  Severity of an AIR: <20% decrease in FEVI Mean: 0.9
  Severity of an AIR: All Symptoms Median: 4
  Severity of an AIR: All Symptoms Min, Max: 3.7
  Severity of an AIR: Lower Respiratory (number of symptoms): 13
  Severity of an AIR: Lower Respiratory Mean: 1.3
  Severity of an AIR: Ocular (number of symptoms): 5
  Severity of an AIR: Ocular Mean: 0.5
  Severity of an AIR: Upper Respiratory (number of symptoms): 25
  Severity of an AIR: Upper Respiratory Mean: 2.5
[2]; per AIR, n = 10
  Severity of an AIR: All Symptoms Mean(SD): 4.3(1.34)
[2]; phase A prior to aspirin initiation
  Asthmatic reactions reported or rescue medications used: No asthmatic reactions were reported or rescue medications used
[2]; provoking aspirin dose 60 mg
  Initial reactions occurring at the 60-mg aspirin dose: 50%
[2]; [12]
  Required Rescue Medication: No: 1 (10) No. of Subjects (%)
  Required Rescue Medication: Yes: 9 (90) No. of Subjects (%)
  Rescue Medications Max: 7
  Rescue Medications Median: 3
  Rescue Medications Min: 0
  Rescue Medications Mean (SD): 2.90 (2.02)
[2]; [13]
  Required Rescue Medication: No: 1 (10%) No. of Subjects (%)
  Rescue Medications Mean (SD): 2.90
[2]; throughout the 7-day study period
  Rescue medication outside the clinic for an asthmatic reaction: no subject required rescue medication outside the clinic
[2]; throughout the treatment period
  Mean changes from baseline FEV1: below 20%
[3]
  TP receptor-induced bronchospasm: both preempt and reverse
[4]
  Contraction of guinea pig trachea elicited by PGD2: inhibit contraction

## CC(C)(O)c1ccccc1CC[C@@H](SCC1(CC(=O)O)CC1)c1cccc(/C=C/c2ccc3ccc(Cl)cc3n2)c1 [montelukast]
[5]
  Inhibition of CYP3A4: does not inhibit
[6]
  Inhibition of CYP2C9: does not inhibit

## CC(c1cc2ccccc2s1)N(O)C(N)=O (centres unmarked) [zileuton]
[7]; Df-treated ptges−/− mice
  Increase in airway resistance on inhalation of Lysine aspirin: sensitive to interference

## CC(c1ccccc1)C(O)/C=C/C1C2CCC(O2)C1C/C=C\CCCC(=O)O (stereo not drawn) [[1S-(1α, 2α(Z), 3α(1E, 3S*, 4R*), 4α)]]-7-[3-(3-hydroxy-4-phenyl-1-pentenyl)-7-oxabicyclo[2.2.1]hept-2-yl]-5-heptenoic acid]
[7]; ptges−/− mice, Lys-ASA challenge
  Rise in cys-LTs (BAL fluid): completely blocked
[7]; ptges−/− mice
  Reaction to aspirin (peak change in RL in response to Lys-ASA challenge): completely blocked
[7]; ptges−/− mice, listed as SQ29.548
  Reaction to aspirin (peak change in RL in response to Lys-ASA challenge): attenuates aspirin sensitivity
